From paper PMC12867150, “A fungi-derived cyclic peptide enhances Th9-mediated antitumor immunity by targeting ZAP70 and SREBP1” (The Journal of Clinical Investigation, 2025) come the findings set out here.

The subject of one series is human Th9 CAR T cells. In words: CAR lentivirus infection efficiency, GFP (S9C). The class given is cell-based. The settings on record: representative flow plot, Figure S9C. The source says: Ct EpA Fat Fat Ct EpA Fat Fat
(A) Flow-cytometric analysis of intracellular IL-9 expression in human Th9 cells […]
(B) Flow-cytometric assessment of mitochondrial mass using Mito Tracker in human Th9 cells treated as in (A) (n = 3).
(C) Flow-cytometric analysis of infection efficiency in Th9 cells transduced with a CD19-directed CAR lentivirus. (D and E) Flow-cytometric analysis of IL-9 expression in human Th9 CAR-T cells on days 5 and 6 of in vitro differentiation, showing representative plots (D) and quantification (E) (n = 3). (F) Measurement of intracellular ATP levels normalized to cell number in human Th9 CAR-T c e l l s (n =5).
(G) Flow-cytometric analysis of mitochondrial mass using Mito Tracker in human Th9 CAR-T c e l l s (n = 3). (H and I) Flow-cytometric analysis of granzyme B⁺ CAR-Th9 cells isolated from spleens after adoptive transfer, showing representative plots (H) and quantification (I) (n = 5 mice per group). Statistical analysis was performed using one-way ANOVA with Tukey’s post hoc test (A and B), or two-tailed unpaired Student’s t-test (E–G, and I). Repeated data are presented as mean ± SEM. *p < 0.05, […]

Another series deals with IL-6. The experiment in a line: Serum IL-6 by ELISA after ACT (S1B). The format is in vivo, mouse. The settings on record: for IL-6 of blood from mouse: Supplemental Figure 1B. Here is the method: Peripheral blood was collected from mouse tail veins at predefined time points in the tumor model. Samples were allowed to clot at 4°C for 1 hour and were then centrifuged at 600g for 25 minutes to obtain serum. Serum IL-6 levels were measured using an ELISA kit (Invitrogen; catalog 88-7064) according to the manufacturer’s instructions.
Days after ACT Days after ACT
Figure S1. EpA enhances immune responses. […]
Serum IL-6 levels after ACT, measured by ELISA on days 5, 10, 15, and 20. (C–E) […]
Statistical analysis was performed using two-way ANOVA with Tukey’s post hoc test (A), one-way ANOVA with Tukey’s post hoc test (B) or two-tailed unpaired Student’s t-test (D and G–M). ns, not significant. *p < 0.05, **p < 0.01, ****p < 0.0001.
(also on this page, place not known: Mouse weight (g) CtrlEpA CtrlEpA CtrlEpA0 I CD45.1+ T cells (%) CtrlEpA CD4+ T cells (%) CtrlEpA CtrlEpA CtrlEpA FSC CD8 CD8 FSC FSC FSC BNumber of CD45.1+ T cells (×103 per mgĎ Number of CD4+ T cells (×104 per mgĎ DC (%)NK cells (%) NK cells (%) DC (%) Number of DC (×103 per mg) Number of NK cells (×105) Number of NK cells (×103 per mg) Number of DC (×105) FSC FSC FSC CD8 CtrlEpA CtrlEpA CtrlEpA CD8+ T cells (%) Number of CD8+ T cells (×104 per mgĎ nsns ns nsns ns 40 IL-6 (pg/ml))
On the technique in general: ELISA stands for enzyme-linked immunosorbent assay.

anteiso-C15 Leu7 surfactin [EpA]: the “GFP gate number (infection efficiency)” value in the series with human Th9 CAR T cells amounted to 47.8. Besides, the “IL-6 of blood from mouse” value in the series on IL-6 (Day5, replicate 1) turned out to be 26.4444 pg/mL; with IL-6 (Day5, replicate 2), 18 pg/mL; in the series on IL-6 (Day5, replicate 3), 22.6667 pg/mL; in the series with IL-6 (Day5, replicate 4), 28 pg/mL; in the series with IL-6 (Day10, replicate 1), 22.6667 pg/mL; with IL-6 (Day10, replicate 2) it was 21.3333 pg/mL. The “IL-6 of blood from mouse” value in the series on IL-6 (Day10, replicate 3) is 24.2222 pg/mL; with IL-6 (Day10, replicate 4) it was 22 pg/mL; in the series with IL-6 (Day15, replicate 1) it was 19.5556 pg/mL; in the series with IL-6 (Day15, replicate 2), 16 pg/mL; in the series with IL-6 (Day15, replicate 3), 11.3333 pg/mL; with IL-6 (Day15, replicate 4) it was 20 pg/mL. The “IL-6 of blood from mouse” value with IL-6 (Day20, replicate 1) was 21.7778 pg/mL; with IL-6 (Day20, replicate 2), 14.8889 pg/mL; with IL-6 (Day20, replicate 3), 14.4445 pg/mL; in the series with IL-6 (Day20, replicate 4), 26.8889 pg/mL. In addition, in the series on IL-6 (EpA-Th9 therapy vs control, result in words), the “serum IL-6 levels” value was “No significant differences”.
